Legend:
[1] = format: physicochemical
Excerpt: (§1) In some embodiments of the present disclosure, in order to measure the diffusion of nitrification inhibitors through volatilization barriers and, therefore, provide diffusion constants to estimate the ultimate loss of nitrification inhibitors to volatilization, Fourier transform infrared spectroscopy operating in attenuated total reflectance mode (“ATR-FTIR”) can be employed to probe diffusion of nitrification inhibitors, such as, for example, nitrapyrin, through polymeric materials.
(§2) A Nicolet 4700 Fourier transform infrared spectrometer (“FTIR”) with SCFGG using attenuated total reflectance (“ATR”) accessory (“Specac”) was utilized in the studies presented herein. Nitrapyrin technical grade manufactured by Dow AgroSciences LLC was used in some of the experiments presented herein. […]
(§3) Kollidon VA64 was purchased as a vinyl pyrrolidone/vinyl acetate 60/40 copolymer from Sigma Aldrich. […] Film thickness was measured using a Dektak profilometer (Veeco). […]
(§4) Films were allowed to equilibrate in the FTIR chamber for thirty minutes before the experiments were started. […] A single-beam spectrum was acquired of the film for use as a background spectrum, after which absorbance spectra were continuously recorded throughout the experiment. Peak heights were determined using a macro and data were fit according to the model as described below. […]

[2] = ATR-FTIR diffusion of nitrapyrin through polymer film, diffusion constant fitted by Fick's second law model; format: physicochemical
Excerpt: as §1, §2, §3, §4

[3] = at 230 Celsius; cited from earlier work

Clc1cccc(C(Cl)(Cl)Cl)n1 [nitrapyrin, 2-chloro-6-(trichloromethyl)pyridine]
diffusion constant for nitrapyrin through polymer film (printed as 'partition coefficient') [1]: 10^−3-10^−2 μm^2/s
diffusion profile of nitrapyrin through film ([2]; Kollidon VA64 film, 30 μm, curve not well-fitting a standard diffusion model): slow through the film before it rapidly equilibrates
diffusion constant ([2]; Polyvinyl pyrollidone (K90) film): 0.1-1 μm^2/s
vapor pressure [3]: 2.8×10^−3 mm Hg

— US20160185682A1, “NITRIFICATION INHIBITOR COMPOSITIONS AND METHODS FOR PREPARING THE SAME” (Dow AgroSciences LLC, priority 2014, published 2016)
